System: human primary corneal epithelial cells
Test: mucin secretion assay using human primary corneal epithelial cells
Type: cell-based
Conditions: for Soluble Mucin Units/well: 45-minute incubation at 37° C., conditioned medium; for Total Mucin Units/well: soluble plus membrane-associated (NAC wash) mucin; for Stimulation Index: ratio of Total Mucin Units/well test solution to Control

Q: With `CCCCCCCCCCCCO[C@@H]1O[C@H](CO)[C@@H](O[C@H]2O[C@H](CO)[C@@H](O)[C@H](O)[C@H]2O)[C@H](O)[C@H]1O` [Dodecylmaltoside, n-Dodecyl-beta-D-maltoside] as the molecule, how does the “Soluble Mucin Units/well” value (0.0001% DDM) read?
A: 10 ± 0.6 Units/well

Q: What about the “Total Mucin Units/well” value (0.0001% DDM) of the same molecule?
A: 18.7 ± 0.2 Units/well

Q: And the “Stimulation Index” value (0.0001% DDM)?
A: 1.23

Q: What about the “Soluble Mucin Units/well” value (0.001% DDM) of the same molecule?
A: 24.7 ± 2.7 Units/well

Q: And the “Total Mucin Units/well” value (0.001% DDM)?
A: 32.3 ± 2.9 Units/well

Q: What about the “Stimulation Index” value (0.001% DDM) of the same molecule?
A: 2.12

Q: What about the “Soluble Mucin Units/well” value (0.01% DDM) of the same molecule?
A: 13.2 ± 0.5 Units/well

Q: What about the “Total Mucin Units/well” value (0.01% DDM) of the same molecule?
A: 30.17 ± 0.6 Units/well

Q: And the “Stimulation Index” value (0.01% DDM)?
A: 1.98

Source: US7223737B1, “Method of treating dry eye disorders using glycosides” (Alcon, Inc., priority 2004, dated 2007)
